Source: ChEMBL document CHEMBL1275550, “In vitro activity of doripenem, a carbapenem for the treatment of challenging infections caused by gram-negative bacteria, against recent clinical isolates from the United States” (2008)
≈ marks a conversion by molar mass, not a printed value.

What was measured:
Pseudomonas aeruginosa [1] = test: Antimicrobial activity against imipenem non-susceptible Pseudomonas aeruginosa assessed as susceptible isolate by broth microdilution method; type: functional
Escherichia coli [2] = test: Antimicrobial activity against Non-ESBL Escherichia coli by broth microdilution method; type: functional
Enterobacter cloacae [3] = test: Antimicrobial activity against Enterobacter cloacae with nonderepressed AmpC beta-lactamsae by broth microdilution method; type: functional
Enterobacteriaceae [4] = test: Antimicrobial activity against ceftazidime-susceptible Enterobacteriaceae assessed as intermediate isolate by broth microdilution method; type: functional
Acinetobacter [5] = test: Antimicrobial activity against imipenem non-susceptible Acinetobacter by broth microdilution method; type: functional
Acinetobacter [6] = test: Antimicrobial activity against imipenem susceptible Acinetobacter by broth microdilution method; type: functional
Proteus mirabilis [7] = test: Antimicrobial activity against Non-ESBL Proteus mirabilis by broth microdilution method; type: functional
Enterobacteriaceae [8] = test: Antimicrobial activity against Ceftazidime non-susceptible Enterobacteriaceae assessed as resistant isolate by broth microdilution method; type: functional
Escherichia coli [9] = test: Antimicrobial activity against Non-ESBL Escherichia coli assessed as susceptible isolate by broth microdilution method; type: functional
Citrobacter [10] = test: Antimicrobial activity against Citrobacter with nonderepressed AmpC beta-lactamsae by broth microdilution method; type: functional
Klebsiella pneumoniae [11] = test: Antimicrobial activity against ESBL producing Klebsiella pneumoniae by broth microdilution method; type: functional
Pseudomonas aeruginosa [12] = test: Antimicrobial activity against imipenem non-susceptible Pseudomonas aeruginosa by broth microdilution method; type: functional
Serratia marcescens [13] = test: Antimicrobial activity against Ceftazidime susceptible Serratia marcescens assessed as resistant isolate by broth microdilution method; type: functional
Enterobacter cloacae [14] = test: Antimicrobial activity against Enterobacter cloacae with nonderepressed AmpC beta-lactamsae assessed as susceptible isolate by broth microdilution method; type: functional
Pseudomonas aeruginosa [15] = test: Antimicrobial activity against Ceftazidime susceptible Pseudomonas aeruginosa assessed as intermediate isolate by broth microdilution method; type: functional
Pseudomonas aeruginosa [16] = test: Antimicrobial activity against Pseudomonas aeruginosa isolated from non-ICU patient by broth microdilution method; type: functional
Proteus mirabilis [17] = test: Antimicrobial activity against Non-ESBL Proteus mirabilis assessed as susceptible isolate by broth microdilution method; type: functional
Pseudomonas aeruginosa [18] = test: Antimicrobial activity against Pseudomonas aeruginosa isolated from ICU patient by broth microdilution method; type: functional
Pseudomonas aeruginosa [19] = test: Antimicrobial activity against Pseudomonas aeruginosa isolated from non-ICU patient by broth microdilution method
Pseudomonas aeruginosa [20] = test: Antimicrobial activity against Pseudomonas aeruginosa isolated from ICU patient assessed as susceptible isolate by broth microdilution method
Pseudomonas aeruginosa [21] = test: Antimicrobial activity against Pseudomonas aeruginosa isolated from patient by broth microdilution method
Acinetobacter [22] = test: Antimicrobial activity against imipenem non-susceptible Acinetobacter assessed as resistant isolate by broth microdilution method; type: functional
Klebsiella pneumoniae [23] = test: Antimicrobial activity against Non-ESBL Klebsiella pneumoniae by broth microdilution method; type: functional
Pseudomonas aeruginosa [24] = test: Antimicrobial activity against imipenem susceptible Pseudomonas aeruginosa assessed as intermediate isolate by broth microdilution method; type: functional
Proteus mirabilis [25] = test: Antimicrobial activity against ESBL producing Proteus mirabilis assessed as intermediate isolate by broth microdilution method; type: functional
Klebsiella pneumoniae [26] = test: Antimicrobial activity against Non-ESBL Klebsiella pneumoniae assessed as susceptible isolate by broth microdilution method; type: functional
Klebsiella pneumoniae [27] = test: Antimicrobial activity against Non-ESBL Klebsiella pneumoniae assessed as intermediate isolate by broth microdilution method; type: functional
Pseudomonas aeruginosa [28] = test: Antimicrobial activity against Ceftazidime susceptible Pseudomonas aeruginosa by broth microdilution method; type: functional
Proteus mirabilis [29] = test: Antimicrobial activity against ESBL producing Proteus mirabilis by broth microdilution method; type: functional
Citrobacter [30] = test: Antimicrobial activity against Citrobacter with derepressed AmpC beta-lactamsae assessed as susceptible isolate by broth microdilution method; type: functional
Enterobacteriaceae [31] = test: Antimicrobial activity against ceftazidime-susceptible Enterobacteriaceae assessed as susceptible isolate by broth microdilution method; type: functional
Enterobacteriaceae [32] = test: Antimicrobial activity against Ceftazidime non-susceptible Enterobacteriaceae assessed as susceptible isolate by broth microdilution method; type: functional
Pseudomonas aeruginosa [33] = test: Antimicrobial activity against Ceftazidime susceptible Pseudomonas aeruginosa assessed as resistant isolate by broth microdilution method; type: functional
Escherichia coli [34] = test: Antimicrobial activity against ESBL producing Escherichia coli assessed as intermediate isolate by broth microdilution method; type: functional
Serratia marcescens [35] = test: Antimicrobial activity against Ceftazidime non-susceptible Serratia marcescens assessed as intermediate isolate by broth microdilution method; type: functional
Pseudomonas aeruginosa [36] = test: Antimicrobial activity against Pseudomonas aeruginosa isolated from non-ICU patient assessed as resistant isolate by broth microdilution method
Enterobacteriaceae [37] = test: Antimicrobial activity against Ceftazidime non-susceptible Enterobacteriaceae by broth microdilution method; type: functional
Escherichia coli [38] = test: Antimicrobial activity against Non-ESBL Escherichia coli assessed as intermediate isolate by broth microdilution method; type: functional

## CC(C)(O/N=C(\C(=O)N[C@@H]1C(=O)N2C(C(=O)[O-])=C(C[n+]3ccccc3)CS[C@H]12)c1csc(N)n1)C(=O)O [CEFTAZIDIME]
Pseudomonas aeruginosa [1]
  Activity: 76.3%
Escherichia coli [2]
  MIC50: 0.12 µg/mL (≈ 0.22 µM)
  MIC90: 0.25 µg/mL (≈ 0.457 µM)
Enterobacter cloacae [3]
  MIC50: 0.25 µg/mL (≈ 0.457 µM)
  MIC90: 2 µg/mL (≈ 3.66 µM)
Enterobacteriaceae [4]
  Activity: 0%
Acinetobacter [5]
  MIC50: > 32 µg/mL
  MIC90: > 32 µg/mL
Acinetobacter [6]
  MIC50: 4 µg/mL (≈ 7.32 µM)
  MIC90: > 32 µg/mL
Proteus mirabilis [7]
  MIC: ≤ 0.03 µg/mL
  MIC50: ≤ 0.03 µg/mL
  MIC90: 0.06 µg/mL (≈ 0.11 µM)
Enterobacteriaceae [8]
  Activity: 92.4%
Escherichia coli [9]
  Activity: 98.6%
Citrobacter [10]
  MIC50: 0.25 µg/mL (≈ 0.457 µM)
  MIC90: 1 µg/mL (≈ 1.83 µM)
Klebsiella pneumoniae [11]
  MIC50: > 32 µg/mL
  MIC90: > 32 µg/mL
Pseudomonas aeruginosa [12]
  MIC50: 4 µg/mL (≈ 7.32 µM)
  MIC90: > 32 µg/mL
Serratia marcescens [13]
  Activity: 0%
Enterobacter cloacae [14]
  Activity: 93.6%
Pseudomonas aeruginosa [15]
  Activity: 0%
Pseudomonas aeruginosa [16]
  MIC50: 2 µg/mL (≈ 3.66 µM)
  MIC90: 32 µg/mL (≈ 58.5 µM)
Proteus mirabilis [17]
  Activity: 99.5%
Pseudomonas aeruginosa [18]
  MIC50: 2 µg/mL (≈ 3.66 µM)
  MIC90: 32 µg/mL (≈ 58.5 µM)
Pseudomonas aeruginosa [19]
  Activity: 87.3%
Pseudomonas aeruginosa [20]
  Activity: 79.9%
Pseudomonas aeruginosa [21]
  Activity: 2.3%
Acinetobacter [22]
  Activity: 84.3%
Klebsiella pneumoniae [23]
  MIC50: 0.12 µg/mL (≈ 0.22 µM)
  MIC90: 0.5 µg/mL (≈ 0.915 µM)
Pseudomonas aeruginosa [24]
  Activity: 2.2%
Proteus mirabilis [25]
  Activity: 50%
Klebsiella pneumoniae [26]
  Activity: 99.2%
Klebsiella pneumoniae [27]
  Activity: 0.3%
Pseudomonas aeruginosa [28]
  MIC50: 2 µg/mL (≈ 3.66 µM)
  MIC90: 4 µg/mL (≈ 7.32 µM)
Proteus mirabilis [29]
  MIC: 8 µg/mL (≈ 14.6 µM)
Citrobacter [30]
  Activity: 0%
Enterobacteriaceae [31]
  Activity: 100%
Enterobacteriaceae [32]
  Activity: 0%
Pseudomonas aeruginosa [33]
  Activity: 0%
Escherichia coli [34]
  Activity: 10%
Serratia marcescens [35]
  Activity: 0%
Pseudomonas aeruginosa [36]
  Activity: 10.4%
Enterobacteriaceae [37]
  MIC50: > 32 µg/mL
  MIC90: > 32 µg/mL
Escherichia coli [38]
  Activity: 0.5%
